Here are results for twelve molecules from patent US10421774B2 (priority 2016, dated 2019).

pEC50: −log10 of the molar value. A value given as a limit tells only on which side of the number the result lay.

Common to all, as to assay: microbe, parasite or virus in culture
Format in all cases: cell-based, HIV-1

One assay has as its system gag V370A/ΔT371 virus. The settings on record: Human immunodeficiency virus 1, MT2, read-out: V370A/ΔT371 EC50. The procedure, abridged:
(§1)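 Virus yield quantified by Renilla luciferase after 4–5 day culture at 37°C of MT-2 cells (10,000/well) with 3-fold serially diluted compound at 1% final DMSO. Reporter viruses were NL4-3 P373S derivatives bearing Gag A364V or V370A/ΔT371, inputs matched on luciferase endpoint.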

Assay [1] deals with A364V site directed mutant virus. The settings on record: Human immunodeficiency virus 1, MT2, read-out: A364V EC50. Put shortly: as §1
The test system of assay [2] is T332S/V362I/Pr R41G virus. The settings on record: Human immunodeficiency virus 1, MT2, read-out: T332S/V362I/pr41G EC50. Put shortly: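 Multiple-cycle susceptibility: MT-2 cells, 10,000 per well, exposed to 3-fold compound dilutions at 1% DMSO after infection with luciferase-normalized inoculum. Virus: NL4-3-derived Renilla reporter (Gag P373S) with Gag T332S/V362I and protease R41G. Readout Renilla luciferase after 4–5 days, 37 °C.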

The test system of assay [3] is NLRepRlucP373S recombinant wild type (WT) virus. The settings on record: Human immunodeficiency virus 1, MT2, read-out: WT EC50. Put shortly: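 Multiple-cycle assay: luciferase-normalized NL4-3-derived NLRepRlucP373S (Renilla luciferase in place of nef) infects MT-2 cells, 10,000 cells/well, with 3-fold compound dilutions at 1% DMSO, 4-5 days, 37 °C. EC50 and EC90 fitted by median effect equation against Renilla luminescence, with residual signal under 3 μM NFV as background.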

Consider `C=C(C)[C@@H]1CC[C@]2(NCCN3CCS(=O)(=O)CC3)CC[C@]3(C)[C@H](CC[C@@H]4[C@@]5(C)CC=C(C6=CCC(COc7nsc8ccccc78)(C(=O)O)CC6)C(C)(C)[C@@H]5CC[C@]43C)[C@@H]12` (stereo partly drawn) [Example 8], for which the pEC50 (in the assay on gag V370A/ΔT371 virus; in assay [1]; in assay [2]; in assay [3]) was over 7.30 in each case.

Consider `C=C(C)[C@@H]1CC[C@]2(NCCN3CCS(=O)(=O)CC3)CC[C@]3(C)[C@H](CC[C@@H]4[C@@]5(C)CC=C(C6=CCC(COc7cnsn7)(C(=O)O)CC6)C(C)(C)[C@@H]5CC[C@]43C)[C@@H]12` (stereo partly drawn) [Example 6, 1-(((1,2,5-thiadiazol-3-yl)oxy)methyl)-4-((1R,3aS,5aR,5bR,7aR,11aS,11bR,13aR,13bR)-3a-((2-(1,1-dioxidothiomorpholino)ethyl)amino)-5a,5b,8,8,11a-pentamethyl-1-(prop-1-en-2-yl)-2,3,3a,4,5,5a,5b,6,7,7a,8,11,11a,11b,12,13,13a,13b-octadecahydro-1H-cyclopenta[a]chrysen-9-yl)cyclohex-3-ene-1-carboxylic acid], for which the pEC50 was over 7.30 with gag V370A/ΔT371 virus, under 7.30 in assay [1], over 7.30 in assay [2] and over 7.30 in assay [3].

On to `C=C(C)[C@@H]1CC[C@]2(NCCN3CCS(=O)(=O)CC3)CC[C@]3(C)[C@H](CC[C@@H]4[C@@]5(C)CC=C(C6=CCC(COc7ncccc7C#N)(C(=O)O)CC6)C(C)(C)[C@@H]5CC[C@]43C)[C@@H]12` (stereo partly drawn) [Example 36, 1-(((3-cyanopyridin-2-yl)oxy)methyl)-4-((1R,3aS,5aR,5bR,7aR,11aS,11bR,13aR,13bR)-3a-((2-(1,1-dioxidothiomorpholino)ethyl)amino)-5a,5b,8,8,11a-pentamethyl-1-(prop-1-en-2-yl)-2,3,3a,4,5,5a,5b,6,7,7a,8,11,11a,11b,12,13,13a,13b-octadecahydro-1H-cyclopenta[a]chrysen-9-yl)cyclohex-3-ene-1-carboxylic acid], for which the pEC50 was 7.96 with gag V370A/ΔT371 virus, 8.30 in assay [1], 7.96 in assay [2] and 8.52 in assay [3].

With `C=C(C)[C@@H]1CC[C@]2(NCCN3CCS(=O)(=O)CC3)CC[C@]3(C)[C@H](CC[C@@H]4[C@@]5(C)CC=C(C6=CC[C@@](COc7cccc(OC)n7)(C(=O)O)CC6)C(C)(C)[C@@H]5CC[C@]43C)[C@@H]12` [Example 28, (S)-4-((1R,3aS,5aR,5bR,7aR,11aS,11bR,13aR,13bR)-3a-((2-(1,1-dioxidothiomorpholino)ethyl)amino)-5a,5b,8,8,11a-pentamethyl-1-(prop-1-en-2-yl)-2,3,3a,4,5,5a,5b,6,7,7a,8,11,11a,11 b,12,13,13a,13b-octadecahydro-1H-cyclopenta[a]chrysen-9-yl)-1-(((6-methoxypyridin-2-yl)oxy)methyl)cyclohex-3-ene-1-carboxylic acid], the pEC50 with gag V370A/ΔT371 virus was 7.68; in assay [1] it was 7.68; in assay [2], 7.68; in assay [3], 8.52.

For the molecule `C=C(C)[C@@H]1CC[C@]2(NCCN3CCS(=O)(=O)CC3)CC[C@]3(C)[C@H](CC[C@@H]4[C@@]5(C)CC=C(C6=CCC(CCOc7cc(Cl)ccn7)(C(=O)O)CC6)C(C)(C)[C@@H]5CC[C@]43C)[C@@H]12` (stereo partly drawn) [Example A34, 1-(2-((4-chloropyridin-2-yl)oxy)ethyl)-4-((1R,3aS,5aR,5bR,7aR,11aS,11bR,13aR,13bR)-3a-((2-(1,1-dioxidothiomorpholino)ethyl)amino)-5a,5b,8,8,11a-pentamethyl-1-(prop-1-en-2-yl)-2,3,3a,4,5,5a,5b,6,7,7a,8,11,11a,11b,12,13,13a,13b-octadecahydro-1H-cyclopenta[a]chrysen-9-yl)cyclohex-3-ene-1-carboxylic acid], the pEC50 in the assay with gag V370A/ΔT371 virus was under 7.30; in assay [1], 7.19; in assay [2], 7.02; in assay [3], 8.70.

Turning to `C=C(C)[C@@H]1CC[C@]2(NCCN3CCS(=O)(=O)CC3)CC[C@]3(C)[C@H](CC[C@@H]4[C@@]5(C)CC=C(C6=CCC(CCOc7ccccn7)(C(=O)O)CC6)C(C)(C)[C@@H]5CC[C@]43C)[C@@H]12` (stereo partly drawn) [Example A20, 4-((1R,3aS,5aR,5bR,7aR,11aS,11bR,13aR,13bR)-3a-((2-(1,1-dioxidothiomorpholino)ethyl)amino)-5a,5b,8,8,11a-pentamethyl-1-(prop-1-en-2-yl)-2,3,3a,4,5,5a,5b,6,7,7a,8,11,11a,11b,12,13,13a,13b-octadecahydro-1H-cyclopenta[a]chrysen-9-yl)-1-(2-(pyridin-2-yloxy)ethyl)cyclohex-3-ene-1-carboxylic acid], the pEC50 (with gag V370A/ΔT371 virus; in assay [1]; in assay [2]; in assay [3]) was over 7.30 in each case.

In the case of `C=C(C)[C@@H]1CC[C@]2(NCCN3CCS(=O)(=O)CC3)CC[C@]3(C)[C@H](CC[C@@H]4[C@@]5(C)CC=C(C6=CC[C@@](COc7cccc(F)n7)(C(=O)O)CC6)C(C)(C)[C@@H]5CC[C@]43C)[C@@H]12` [Example 29, (S)-4-((1R,3aS,5aR,5bR,7aR,11aS,11bR,13aR,13bR)-3a-((2-(1,1-dioxidothiomorpholino)ethyl)amino)-5a,5b,8,8,11a-pentamethyl-1-(prop-1-en-2-yl)-2,3,3a,4,5,5a,5b,6,7,7a,8,11,11a,11 b,12,13,13a,13b-octadecahydro-1H-cyclopenta[a]chrysen-9-yl)-1-(((6-fluoropyridin-2-yl)oxy)methyl)cyclohex-3-ene-1-carboxylic acid], the pEC50 was 7.68 in the assay on gag V370A/ΔT371 virus, 8.30 in assay [1], 7.68 in assay [2] and 8.30 in assay [3].

Turning to `C=C(C)c1cc(OCC2(C(=O)O)CC=C(C3=CC[C@]4(C)[C@H]5CC[C@@H]6[C@H]7[C@H](C(=C)C)CC[C@]7(NCCN7CCS(=O)(=O)CC7)CC[C@@]6(C)[C@]5(C)CC[C@H]4C3(C)C)CC2)ns1` (stereo partly drawn) [Example 18], the pEC50 with gag V370A/ΔT371 virus was over 7.30; in assay [1], 7.96; in assay [2] it was 7.85; in assay [3] it was 8.70.

As to `C=C(C)[C@@H]1CC[C@]2(NC[C@@H](O)C(=O)O)CC[C@]3(C)[C@H](CC[C@@H]4[C@@]5(C)CC=C(C6=CC[C@](COc7ncccc7C#N)(C(=O)O)CC6)C(C)(C)[C@@H]5CC[C@]43C)[C@@H]12` [Example A15, (R)-4-((1R,3aS,5aR,5bR,7aR,11aS,11bR,13aR,13bR)-3a-(((R)-2-carboxy-2-hydroxyethyl)amino)-5a,5b,8,8,11a-pentamethyl-1-(prop-1-en-2-yl)-2,3,3a,4,5,5a,5b,6,7,7a,8,11,11a,11b,12,13,13a,13b-octadecahydro-1H-cyclopenta[a]chrysen-9-yl)-1-(((3-cyanopyridin-2-yl)oxy)methyl)cyclohex-3-enecarboxylic acid], the pEC50 in the assay with gag V370A/ΔT371 virus is 8.00; in assay [1], 6.10; in assay [2], 8.00; in assay [3] it was 8.52.

With `C=C(C)[C@@H]1CC[C@]2(NCCN3CCS(=O)(=O)CC3)CC[C@]3(C)[C@H](CC[C@@H]4[C@@]5(C)CC=C(C6=CCC(CCOc7cc(C#N)ccn7)(C(=O)O)CC6)C(C)(C)[C@@H]5CC[C@]43C)[C@@H]12` (stereo partly drawn) [Example A24, 1-(2-((4-cyanopyridin-2-yl)oxy)ethyl)-4-((1R,3aS,5aR,5bR,7aR,11aS,11bR,13aR,13bR)-3a-((2-(1,1-dioxidothiomorpholino)ethyl)amino)-5a,5b,8,8,11a-pentamethyl-1-(prop-1-en-2-yl)-2,3,3a,4,5,5a,5b,6,7,7a,8,11,11a,11b,12,13,13a,13b-octadecahydro-1H-cyclopenta[a]chrysen-9-yl)cyclohex-3-ene-1-carboxylic acid], the pEC50 in the assay on gag V370A/ΔT371 virus is 5.52; in assay [1], 8.15; in assay [2], 5.52; in assay [3], 9.00.

For the molecule `C=C(C)[C@@H]1CC[C@]2(NCCN3CCS(=O)(=O)CC3)CC[C@]3(C)[C@H](CC[C@@H]4[C@@]5(C)CC=C(C6=CC[C@@](COc7cnccn7)(C(=O)O)CC6)C(C)(C)[C@@H]5CC[C@]43C)[C@@H]12` [Example 32, (S)-4-((1R,3aS,5aR,5bR,7aR,11aS,11bR,13aR,13bR)-3a-((2-(1,1-dioxidothiomorpholino)ethyl)amino)-5a,5b,8,8,11a-pentamethyl-1-(prop-1-en-2-yl)-2,3,3a,4,5,5a,5b,6,7,7a,8,11,11a,11b,12,13,13a,13b-octadecahydro-1H-cyclopentatalchrysen-9-yl)-1-((pyrazin-2-yloxy)methyl)cyclohex-3-ene-1-carboxylic acid], the pEC50 (with gag V370A/ΔT371 virus; in assay [1]; in assay [2]; in assay [3]) was over 7.30 in each case.

As to `C=C(C)[C@@H]1CC[C@]2(NCCN3CCS(=O)(=O)CC3)CC[C@]3(C)[C@H](CC[C@@H]4[C@@]5(C)CC=C(C6=CCC(COc7ncccn7)(C(=O)O)CC6)C(C)(C)[C@@H]5CC[C@]43C)[C@@H]12` (stereo partly drawn) [Example 34], the pEC50 in the assay with gag V370A/ΔT371 virus was 7.89; in assay [1], over 7.30; in assay [2] it was 7.89; in assay [3], 8.70.
